Measured values from patent US6403638B1, “2,4-pentadienoic acid derivatives having selective activity for retinoid X (RXR) receptors” (Allergan Sales, Inc., priority 1998, dated 2002).

How the values were obtained:
RXRα [1] = target: T1, RXRα (Homo sapiens, UniProt P19793); experiment: RXR receptor transactivation assay; format: cell-based; conditions: for Emax: read-out: % Eff RXR α transactivation; for EC50: read-out: EC50 RXR α transactivation
T1 construct: expressed in transfected cells
T1 sequence (P19793 1-462): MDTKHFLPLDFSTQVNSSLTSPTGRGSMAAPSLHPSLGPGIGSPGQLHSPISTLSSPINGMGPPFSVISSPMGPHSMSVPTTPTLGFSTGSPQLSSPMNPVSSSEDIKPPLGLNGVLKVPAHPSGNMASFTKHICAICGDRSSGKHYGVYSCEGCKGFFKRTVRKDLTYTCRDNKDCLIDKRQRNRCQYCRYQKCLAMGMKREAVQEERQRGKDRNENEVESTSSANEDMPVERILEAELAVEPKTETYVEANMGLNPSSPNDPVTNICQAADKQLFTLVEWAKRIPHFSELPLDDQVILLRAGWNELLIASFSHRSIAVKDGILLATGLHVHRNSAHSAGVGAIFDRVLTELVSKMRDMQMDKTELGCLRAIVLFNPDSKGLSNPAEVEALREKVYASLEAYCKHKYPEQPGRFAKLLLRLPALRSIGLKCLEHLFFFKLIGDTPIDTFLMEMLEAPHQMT
From the text: The specification of U.S. Pat. No. 5,455,265 is hereby expressly incorporated by reference.
(§1) A holoreceptor transactivation assay and a ligand binding assay which measure the antagonist/agonist like activity of the compounds of the invention, or their ability to bind to the several retinoid receptor subtypes, respectively, are described in published PCT Application No. WO WO93/11755 (particularly on pages 30-33 and 37-41) published on Jun. 24, 1993, the specification of which is also incorporated herein by reference. A detailed experimental procedure for holoreceptor transactivations has been described by Heyman et al. Cell 68, 397-406, (1992); Allegretto et al. J. Biol. Chem. 268, 26625-26633, and Mangelsdorf et al. The Retinoids: Biology, Chemistry and Medicine, pp 319-349, Raven Press Ltd., New York, which are expressly incorporated herein by reference. The results obtained in this assay are expressed in EC50 numbers, as they are also in the chimeric receptor transactivation assay. The results of ligand binding assay are expressed in Kd numbers. (See Cheng et as. Biochemical Pharmacology Vol. 22 pp 3099-3108, expressly incorporated herein by reference.)

RXRβ [2] = target: T2, RXRβ (Homo sapiens, UniProt P28702); experiment: RXR receptor transactivation assay; format: cell-based; conditions: for Emax: read-out: % Eff RXR β transactivation; for EC50: read-out: EC50 RXR β transactivation
T2 construct: expressed in transfected cells
T2 sequence (P28702 1-533): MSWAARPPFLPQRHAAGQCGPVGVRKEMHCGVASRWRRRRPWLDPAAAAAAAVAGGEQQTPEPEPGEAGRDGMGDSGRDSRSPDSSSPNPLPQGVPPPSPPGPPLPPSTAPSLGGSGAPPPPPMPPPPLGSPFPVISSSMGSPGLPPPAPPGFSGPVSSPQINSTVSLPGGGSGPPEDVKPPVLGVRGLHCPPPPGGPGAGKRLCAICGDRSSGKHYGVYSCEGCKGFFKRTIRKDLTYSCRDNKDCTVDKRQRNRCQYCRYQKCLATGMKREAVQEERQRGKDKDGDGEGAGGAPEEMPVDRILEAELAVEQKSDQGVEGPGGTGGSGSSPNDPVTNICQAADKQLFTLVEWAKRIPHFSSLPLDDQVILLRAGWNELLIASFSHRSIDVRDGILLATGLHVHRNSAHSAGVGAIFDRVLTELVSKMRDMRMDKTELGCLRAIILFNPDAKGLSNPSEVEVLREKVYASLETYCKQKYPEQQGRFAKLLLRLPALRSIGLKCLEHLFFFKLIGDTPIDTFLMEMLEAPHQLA
From the text: as §1

RXRγ [3] = target: T3, RXRγ (Homo sapiens, UniProt P48443); experiment: RXR receptor transactivation assay; format: cell-based; conditions: for Emax: read-out: % Eff RXR γ transactivation; for EC50: read-out: EC50 RXR γ transactivation
T3 construct: expressed in transfected cells
T3 sequence (P48443 1-463): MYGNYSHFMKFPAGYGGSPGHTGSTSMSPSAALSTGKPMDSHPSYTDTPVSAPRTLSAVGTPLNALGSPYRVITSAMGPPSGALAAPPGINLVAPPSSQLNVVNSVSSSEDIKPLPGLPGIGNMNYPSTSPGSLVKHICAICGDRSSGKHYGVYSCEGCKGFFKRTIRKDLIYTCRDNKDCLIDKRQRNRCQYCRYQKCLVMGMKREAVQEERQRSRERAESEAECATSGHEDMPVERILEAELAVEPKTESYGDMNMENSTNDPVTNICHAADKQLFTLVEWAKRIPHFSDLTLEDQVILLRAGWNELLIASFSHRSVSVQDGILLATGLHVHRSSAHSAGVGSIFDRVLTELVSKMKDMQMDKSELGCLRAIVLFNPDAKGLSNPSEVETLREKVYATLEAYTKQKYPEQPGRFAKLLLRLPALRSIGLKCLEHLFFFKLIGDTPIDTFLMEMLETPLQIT
From the text: as §1

RXRα [4] = target: T1, RXRα; experiment: ligand binding assay; conditions: read-out: Kd RXR α binding
From the text: as §1

RXRγ [5] = target: T3, RXRγ; experiment: ligand binding assay; conditions: read-out: Kd RXR γ binding
From the text: as §1

RXRβ [6] = target: T2, RXRβ; experiment: ligand binding assay; conditions: read-out: Kd RXR β binding
From the text: as §1

| Compound | Emax (RXRα [1]) | EC50 (RXRα [1]) | Emax (RXRβ [2]) | EC50 (RXRβ [2]) | Emax (RXRγ [3]) | EC50 (RXRγ [3]) | Kd (RXRα [4]) | Kd (RXRγ [5]) | Kd (RXRβ [6]) |
| --- | --- | --- | --- | --- | --- | --- | --- | --- | --- |
| CCCC1(c2ccc3c(c2)C(C(C)(C)C)=CCC3(C)C)CC1/C=C/C(C)=C/C(=O)O (single isomer, unassigned; (+)) [Compound 22] | 94% | 300 pM | 88% | 1800 pM | 110% | 800 pM | 27 pM | 580 pM | – |
| CC(/C=C/[C@@H]1C[C@]1(C)c1ccc2c(c1)C(C(C)C)=CCC2(C)C)=C\C(=O)O [Compound 64, 7(1-Isoproply-4,4-dimethyl-3,4-dihydronaphthalen-7-yl](6S,7S)-6,7-methano-3,7-dimethyl-hepta-2E,4E-dienoic acid] | 109% | 100 pM | 109% | 300 pM | 108% | 100 pM | 700 pM | 3000 pM | 6000 pM |
| CCCCC1=CC(C)(C)Oc2cc([C@@]3(C)C[C@H]3/C=C/C(C)=C/C(=O)O)ccc21 [Compound 89] | 110% | 100 pM | 99% | 100 pM | 112% | 100 pM | 190 pM | 1400 pM | 600 pM |
| CC1=CC(C)(C)Oc2cc(C3(C)CC3/C=C/C(C)=C/C(=O)O)ccc21 (centres unmarked) [Compound 28] | 103% | 50 pM | 111% | 460 pM | 96% | 140 pM | 210 pM | 3100 pM | – |
| CCC1(c2cc(C(C)C)cc(C(C)C)c2)CC1/C=C/C(C)=C/C(=O)O (single isomer, unassigned; (+)) [Compound 7] | 147% | – | 152% | 60 pM | 156% | – | 50 pM | 7300 pM | – |
| CCCC1(c2cc(C(C)(C)C)cc(C(C)(C)C)c2)CC1/C=C/C(C)=C/C(=O)O (single isomer, unassigned; (+)) [Compound 14] | 93% | 9000 pM | 80% | 4300 pM | 86% | 1300 pM | 30 pM | 3700 pM | – |
| CC(/C=C/[C@@H]1C[C@]1(C)c1ccc2c(c1)OC(C)(C)C=C2C(C)(C)C)=C\C(=O)O [Compound 88] | 106% | 100 pM | 107% | 100 pM | 105% | 100 pM | 170 pM | 1400 pM | 1600 pM |
| CC(/C=C/[C@@H]1C[C@]1(C)c1cc(C(C)(C)C)cc(C(C)(C)C)c1)=C\C(=O)O [Compound 96, 7-(3,5-di-t-Butylphenyl)-(6S,7S)-6,7-methano-3,7-dimethyl-hepta-2E,4E-dienoic acid] | 87% | 1000 pM | 85% | 9000 pM | 112% | 2000 pM | 600 pM | 2800 pM | 1700 pM |
| CC(/C=C/[C@@H]1C[C@]1(C)c1ccc2c(c1)C(C(C)(C)C)=CCC2(C)C)=C\C(=O)O [Compound 57] | 95% | 100 pM | 95% | 700 pM | 89% | 100 pM | 10 pM | 4200 pM | 800 pM |
| CC(/C=C/[C@@H]1C[C@]1(C)c1ccc2c(c1)OC(C)(C)C=C2C(C)C)=C\C(=O)O [Compound 87] | 102% | 100 pM | 107% | 300 pM | 116% | 100 pM | 50 pM | 320 pM | 2900 pM |
| CCCC1(c2ccc3c(c2)C(C(C)C)=CCC3(C)C)CC1/C=C/C(C)=C/C(=O)O (single isomer, unassigned; (+)) [Compound 34] | 105% | 50 pM | 98% | 900 pM | 115% | 100 pM | 10 pM | 1400 pM | – |
